Test results published in ChEMBL document CHEMBL1159275, “Mycalolides D and E, new cytotoxic macrolides from a collection of the stony coral Tubastrea faulkneri” (1995).

Test: Cytotoxicity against human NCI60 cells
Format: functional
Settings: read-out: LC50 (the source's name)

Structure (SMILES) | CC50
CO[C@H]1C/C=C/c2nc(co2)-c2nc(co2)-c2nc(co2)[C@@H](OC)[C@@H](C)C(=O)/C=C/C[C@H](O)CC(=O)O[C@@H](C[C@H](OC)[C@@H](C)CC[C@@H](OC(=O)[C@@H](C)OC)[C@H](C)[C@H](OC(C)=O)[C@H](C)/C=C/N(C)C=O)[C@@H]1C [MYCALOLIDE C] | 2500 nM
COCC(OC)C(=O)OC(CCC(C)C(CC1OC(=O)CC(O)C/C=C/C(=O)CC(C)C(=O)NC(=O)c2coc(n2)-c2coc(n2)/C=C/CC(OC)C1C)OC)C(C)C(OC(C)=O)C(C)/C=C/N(C)C=O (configuration not stated) [MYCALOLIDE D] | 600 nM
